“Also recorded” adds a separate entry of the source.
Legend:
[1] = system: mice bearing colon tumour; settings: cited from earlier work; for effect on host weight loss: daily intraperitoneal injections of 25 mmol/L for 10 days
TNF-α = test: LPS+PHA-induced TNF-α secretion in whole blood from healthy subjects (ELISA); assay type: cell-based, human; settings: for effect of purinergic compound on LPS+PHA-induced TNF-α release: 300 μM, 24 h; for effect on inhibiting TNFα and stimulating IL-10 production: LPS-PHA stimulated whole blood, Experiment 4
Experimental: FIG. 7 Effect of ATP on LPS+PHA-induced TNF-α secretion in whole blood from healthy subjects. The whole blood was exposed to 10 μg/ml LPS and 1 μg/ml PHA with indicated concentrations of ATP for 24 h. The TNF-α released into the supernatants was analyzed using the ELISA method. Results are expressed in percentage, 100% being the TNF-α release under stimulation by LPS+PHA without ATP. […] Data are expressed as the mean values; error bars represent SEM. *, different from control (stimulation by LPS+PHA without ATP) (P<0.05).
FIG. 13 Effect of different purinergic compounds on LPS+PHA-induced TNF-α secretion in whole blood. The whole blood was exposed to 10 μg/ml LPS and 1 μg/ml PHA with the indicated purinergic compounds at the concentration of 300 μM for 24 h. The TNF-α released into the supernatant was analyzed using the ELISA method. Results are expressed in percentage, 100% being the TNF-α release under stimulation by LPS+PHA without addition of a purinergic compound (control). […] The TNF-α release induced by LPS+PHA from whole blood was not inhibited by UTP, UDP or CTP. Data are expressed as the mean values; error bars represent SEM.
Blood was collected from 8 healthy subjects in heparin containing vacutainer tubes. All incubations were performed in duplicate. ATP was dissolved in RPMI 1640 culture medium, at a final concentration of 1-300 μM, and blood pre-incubated with ATP at 5% CO2 at 37 DC for 30 min. After stimulation with LPS en PHA (10 and 1 μg/ml final concentration, respectively), the plates were incubated in 5% CO2 at 37° C. for 24 h. Cell-free supernatant fluids were then collected by centrifugation (6000 rpm, 10 min at 4° C.) and stored at −20° C. until tested for presence of cytokines. All cytokines were quantified by means of PeliKine Compact human ELISA kits (CLB/Sanquin, The Netherlands), based on appropriate and validated sets of monoclonal antibodies.
Whole blood was collected and stimulated with LPS+PHA as described for Experiment 2. ATP, dissolved in RPMI 1640 culture medium, was added to the blood at a final concentration of 1-1000 μM. The agonists were added in the same way as ATP, however their stock solutions are prepared in PBS and further diluted in medium. All incubations are performed in duplicate.

[2] = ESR measurement of DMPO—OH spin adducts during Fenton chemistry; assay type: biochemical
Experimental: The effect of ATP on the formation or scavenging of hydroxyl radicals, generated by Fenton reagents was measured as DMPO—OH spin adducts in ESR spectra. The ESR studies were performed at room temperature using a Bruker EMX 1273 spectrometer equipped with an ER 4119HS high sensitivity cavity and 12 kW power supply. The following instrument conditions were used: scan range, 60 G; center magnetic field, 3490 G; modulation amplitude, 1.0 G; microwave frequency, 9.86 GHz; time constant, 40.96 ms, scan time, 20.48 ms; number of scans, 50. OH radicals were generated by the Fenton reaction, and 5,5-dimethyl-1-pyrroline N-oxide (DMPO) was used for trapping hydroxyl radicals. Fifty microliters of 10 mM H2O2, 50 μl of 250 mM DMPO, 50 μl milliQ, 50 μl milliQ (control) or sample, and 50 μl 5 mM FeSO4/5 mM EDTA were mixed, and then transferred to a capillary glass tube. After 2 minutes, DMPO—OH spin adducts were measured by ESR. Quantification of the spectra was performed by peak integration using the WIN-EPR spectrum manipulation program.
Electron spin resonance (ESR) studies were performed at room temperature using a Bruker EMX 1273 spectrometer equipped with an ER 4119HS high sensitivity cavity and 12 kW power supply. The following instrument conditions were used: scan range, 60 G; center magnetic field, 3490 G; modulation amplitude, 1.0 G; microwave frequency, 9.86 GHz; time constant, 40.96 ms, scan time, 20.48 ms; number of scans, 50. OH radicals were generated by the Fenton reaction, and 5,5-Dimethyl-1-pyrroline N-oxide (DMPO) was used for trapping hydroxyl radicals. Fifty microliters of 10 mM H2O2, 50 μl 250 mM DMPO, 50 μl milliQ, 50 μl milliQ (blanco) or sample and 50 μl 5 mM FeSO4/5 mM EDTA were mixed, transferred to a capillary glass tube and the DMPO—OH spin adducts were measured after 2 minutes by ESR. Quantification of the spectra (in arbitrary units) was performed by peak integration using the WIN-EPR spectrum manipulation program.

Row | Structure (SMILES) | effect of purinergic compound on LPS+PHA-induced TNF-α release (TNF-α) | effect on inhibiting TNFα and stimulating IL-10 production (TNF-α) | further results
1 | Nc1ncnc2c1ncn2[C@@H]1O[C@H](CO)[C@@H](O)[C@H]1O [adenosine] | least inhibition | – | inhibition of host weight loss of tumour-bearing animals ([1]; adenosine without phosphate): ineffective; effect on host weight loss [1]: significant inhibition
2 | O=c1ccn([C@@H]2O[C@H](COP(=O)(O)OP(=O)(O)OP(=O)(O)O)[C@@H](O)[C@H]2O)c(=O)[nH]1 [UTP] | not inhibited | little or no effect | –
3 | Nc1ccn([C@@H]2O[C@H](COP(=O)(O)OP(=O)(O)OP(=O)(O)O)[C@@H](O)[C@H]2O)c(=O)n1 [CTP] | not inhibited | little or no effect | –
4 | Nc1ncnc2c1ncn2[C@@H]1O[C@H](COP(=O)(O)OP(=O)(O)O)[C@@H](O)[C@H]1O [ADP] | inhibited | – | effectiveness in preventing DMPO—OH formation relative to comparator ([2]; 0.1 mM-10 mM): slightly less effective; inhibition of the DMPO—OH spin adduct formation ([2]; highest concentration used (range 0.1 mM-10 mM)): ≈ 70%
5 | O=c1ccn([C@@H]2O[C@H](COP(=O)(O)OP(=O)(O)O)[C@@H](O)[C@H]2O)c(=O)[nH]1 [UDP] | not inhibited | little or no effect | –
6 | Nc1ncnc2nc[nH]c12 [adenine] | – | – | effect on DMPO—OH spin adduct formation / hydroxyl radicals ([2]; 1 mM): little or no effect; also recorded: no significant (P<0.05) effect
7 | Nc1ncnc2c1ncn2[C@@H]1O[C@H](COP(=O)(O)O)[C@@H](O)[C@H]1O [AMP] | inhibited | – | effect on host weight loss [1]: significant inhibition; effect on hydroxyl radicals ([2]; 0.1, 0.3 and 1 mM): no significant effect; effect on hydroxyl radicals ([2]; 3 and 10 mM): reduction of hydroxyl radicals; also recorded: significant (P<0.05) reduction

Source: patent US20090215713A1, “Use of atp for the manufacture of a medicament for the prevention and treatment of oxidative stress and related conditions” (priority 2004, published 2009)
